Reference: US8309766B2 (Obschestvo S. Organichennoi Otvetstvennostiyu …, priority 2005, dated 2012)
Read-outs that look alike come from different tables or passages of the source.

Tests used:
[1] = test system: "acetic contortions" in mice; assay: Analgetic activity on the model "acetic contortions"; format: in vivo, white mongrel mice
Protocol: The tests were conducted on males of white mongrel mice weighing 22-24 grams. The specific pain response (“contortions”) were elicited by intraperitoneal administration to mice of 0.75% acetic acid solution. The following signs were taken into consideration: the number of seizure contractions of abdominal muscles accompanied by stretching the hind limbs and sagging the back. Analgetic effect was assessed by decrease in the number of contortions in animals in percent to the control for 15 minutes post administration of acetic acid. The technique of the tests is disclosed in Koster R., Anderson M., de Beer B.//Fed. Proc. 1959. V. 18. P. 412. Compounds under testing were administered intraperitoneally (using a probe) at a dose 10 μg/kg 60 minutes prior to injection of the acid. Diclofenac (10 mg/kg) was used as a reference drug. Analgetic effect was calculated according to the formula: […]
wherein Ck is the number of contortions in the control group,
Co is the number of contortions in the test group.

"hot plate" test in mice = assay: Analgetic activity on the model "hot plate"; format: in vivo, white mongrel mice; details: 10 mg/kg; for response vs control in vivo at 10 mg/kg / change in vivo at 10 mg/kg: Mus musculus; for response vs control in vivo at 10 mg/kg / Latent time of NT (%): percent of background; for response vs control in vivo at 10 mg/kg: read-out: Latent time of NT (%); for change in vivo at 10 mg/kg: read-out: Analgesia (%)
Protocol: The tests were conducted on males of white mongrel mice weighing 22-24 grams. The animals were individually placed on a hot plate (manufactured by the firm “Ugo Basile”), a temperature of which remained constant and was equal to 55° C. The following first manifestations of pain reaction were recorded: licking paws, jumping up prior to administration of a substance (background parameters) and 0.5, 1, 2, 3 and 4 hours post administration of a substance. Substances were administered […] (using a probe). A weighed amount of a substance was thoroughly mixed in 0.1 ml Tween 80 until a solution was obtained, then normal saline was added up to a volume of 0.5 ml. Average latent time of nociception threshold (NT) was calculated in every group. The results obtained were expressed in percent of the background values. Analgetic effect (in %) was calculated according to the formula: A−100%=X, wherein A is a background parameter; X is analgetic effect (in %)
A is (time 0.5 to 4 hours post administration×100%): background time
As reference drugs, Analgin (150 mg/kg), Paracetamol (200 mg/kg), Ketorol (10 mg/kg), were used.

[2] = Mus musculus, ip, 0.25 h, dose 10 mg/kg (table title), read-out: Analgetic effect (%)
[3] = Mus musculus, ip, 0.25 h, dose 10 mg/kg (table title), read-out: C, % to the control
[4] = dose 10 mg/kg (table title), 60 minutes prior to acetic acid
[5] = 120 minutes post administration

Row | Structure (SMILES) | inhibition in vivo at 10 mg/kg [1, 2] | response vs control in vivo at 10 mg/kg [1, 3] | C ± m (the number of contortions for 15 minutes) [1, 4] | latent time of nociception threshold, M ± m ("hot plate" test in mice; 30 minutes post administration) | latent time of nociception threshold, M ± m ("hot plate" test in mice; 60 minutes post administration) | latent time of nociception threshold, M ± m ("hot plate" test in mice; [5]) | response vs control in vivo at 10 mg/kg ("hot plate" test in mice; 0.5 h, 30 minutes) | change in vivo at 10 mg/kg ("hot plate" test in mice; 0.5 h, 30 minutes) | response vs control in vivo at 10 mg/kg ("hot plate" test in mice; 1 h, 60 minutes) | change in vivo at 10 mg/kg ("hot plate" test in mice; 1 h, 60 minutes) | response vs control in vivo at 10 mg/kg ("hot plate" test in mice; 2 h, 120 minutes) | change in vivo at 10 mg/kg ("hot plate" test in mice; 2 h, 120 minutes) | also measured
1 | COC(=O)[C@H](Cc1ccccc1)NC(=O)CCc1ccc(O)cc1 [Compound XIII, 3-(p-hydroxyphenyl)-propionylphenylalanine methyl ester] | 48.4% | 51.6% | 14.6 ± 1.8 | 5.9 ± 0.3 s | 6.7 ± 0.7 s | 6.8 ± 0.3 s | 107% | 7.3% | 122% | 21.8% | 124% | 23.6% | –
2 | CC(=O)N[C@@H](Cc1ccc(O)cc1)C(=O)NCCc1ccccc1 [Compound XXVIII, acetyltyrosylphenylethylamine] | 42.1% | 57.9% | 15.9 ± 2.4 | 9.2 ± 1.8 s | 8.1 ± 1.0 s | 11.6 ± 2.5 s | 192% | 91.7% | 169% | 68.8% | 242% | 142% | –
3 | O=C(Cc1ccc(O)cc1)NC(Cc1ccccc1)C(=O)O (stereo not drawn) [Compound III, p-hydroxyphenylacetylphenylalanine] | 39.9% | 60.2% | 19.4 ± 3.3 | 6.7 ± 0.9 s | 5.9 ± 0.8 s | 7.0 ± 0.6 s | 181% | 81% | 160% | 59.5% | 189% | 89.2% | –
4 | O=C(CCc1ccccc1)N[C@@H](Cc1ccc(O)cc1)C(=O)OCc1ccccc1 [Compound XXX, 3-phenylproponyltyrosine benzyl ester] | – | – | 11.9 ± 1.7 | 6.9 ± 0.8 s | 9.0 ± 0.9 s | 9.1 ± 1.4 s | – | – | – | – | – | – | Analgetic effect, % ([1]; dose 10 mg/kg (table title)): 36.1%; C, % to the control ([1]; dose 10 mg/kg (table title)): 63.9%; Analgesia (%) ("hot plate" test in mice; 30 minutes): 68.3%; Latent time of NT (%) ("hot plate" test in mice; 30 minutes): 168.3%; Analgesia (%) ("hot plate" test in mice; 60 minutes): 113.8%; Latent time of NT (%) ("hot plate" test in mice; 60 minutes): 213.8%; Analgesia (%) ("hot plate" test in mice; 120 minutes): 121.9%; Latent time of NT (%) ("hot plate" test in mice; 120 minutes): 221.9%
5 | COC(=O)C(Cc1ccc(O)cc1)NC(=O)Cc1ccc(O)cc1 (stereo not drawn) [Compound IV, p-hydroxyphenylacetyltyrosine methyl ester] | 22.1% | 77.9% | 20.8 ± 1.9 | 5.24 ± 0.88 s | 5.54 ± 0.32 s | 5.93 ± 0.59 s | 104% | 4.2% | 110% | 10.1% | 118% | 17.9% | –
6 | O=C(O)Cc1ccccc1Nc1c(Cl)cccc1Cl [Voltaren, reference compound] | – | – | – | – | – | – | – | – | – | – | – | – | inhibition in vivo at 0.008 mg/kg ([1]; Mus musculus, ip, 0.25 h, Voltaren 8 μg/kg, read-out: Analgetic effect (%)): 44.5%; response vs control in vivo at 0.008 mg/kg ([1]; Mus musculus, ip, 0.25 h, Voltaren 8 μg/kg, read-out: C, % to the control): 55.5%; C ± m (the number of contortions for 15 minutes) ([1]; Voltaren 8 μg/kg): 15.8 ± 2.6
